Assay results published in US7964598B2 (The J. David Gladstone Institutes, priority 1995, dated 2011).
“And” between values parts separate entries of the source, which are not always exact repeats. Identical values can stand only once.

Assays:
apoE3 [1] = experiment: Aβ production assay, B103-APP cells incubated with apoE3; assay type: cell-based, rat; conditions: FIG. 22
Description: (§1) Aβ production assay. Stable neuroblastoma B103 cell lines transfected with a wildtype hAPP cDNA construct (B 103-APP) were selected by growing them in Dulbecco's modified Eagle's medium (DMEM) containing 10% fetal calf serum (FBS) and 400 μg/ml G418. A cell line expressing APP at similar levels in mouse brains has been identified by RNase protection assay (RPA) and was used in the studies described below. To determine Aβ production, B103-APP cells were incubated with serum-free minimal essential medium (MEM) containing N2 supplements with or without apoE isoforms for 24 h at 37° C. After incubation, 50 μl of medium was collected and assayed for Aβ levels with an ELISA method. The cells were lysed, and cellular proteins were determined by the Lowry method. AP production was normalized to cellular protein.
(§2) Cell Culture. Rat neuroblastoma B103 cells stably expressing human wildtype APP (hAPP695wt) (Xu et al. ((1999) Proc. Natl. Acad. Sci. USA 96:7547-7552; Esposito, et al. (2004) J. Neurochem. 91:1260-1274) were generated in Dr. Lennart Mucke's laboratory at the Gladstone Institute of Neurological Disease and maintained in Dulbecco's modified Eagle's medium (DMEM) (GIBCO, Grand Island, N.Y.) containing 400 μg/ml G418, 10% fetal bovine serum, and 5% horse serum at 37° C. Twenty-four hours after plating into 48-well plates (1×10^5 cells per well), cells were washed twice with serum-free DMEM and cultured for another 24 h in DMEM containing 1% N-2 supplement (GIBCO) to induce differentiation. The cells were treated with either β-VLDL (25 μg/ml cholesterol), recombinant human apoE isoform-enriched β-VLDL (7.5 μg/ml apoE and 25 μg/ml cholesterol), or recombinant human apoE (7.5 μg/ml apoE) in fresh DMEM containing 1% N-2 supplement for an additional 24 h. In some experiments, RAP (25 nM or 1 μM) was added to the cells 1 h before apoE treatment.
(§3) Aβ Assay. Aβ secreted into the medium was detected with a sandwich enzyme-linked immunosorbent assay (ELISA), using mAb 266 as a capturing antibody and 3D6 as a detecting antibody, as described. Johnson-Wood et al. ((1997) Proc. Natl. Acad. Sci. USA 94:1550-1555). Aβ was quantified from a standard curve (Aβ42; Bachem, Torrance, Calif.) and normalized by total cellular protein.

apoE4 = target: T1, apoE4 (Homo sapiens, UniProt P02649, C130R); experiment: Emulsion binding assay for domain interaction, apoE4; conditions: for E4 + cpd n = 3, % bound / E4 + cpd n = 3, % free / E4 control, % bound / E4 control, % free: follow-up assay; for E4 control, % bound / E4 control, % free: second E4 control; for E4 + cpd, % bound / E4 + cpd, % free: initial assay, 2.5 μl of compound (10 mM stock) in 250 μl, 37° C. 2 hours
T1 construct: made in house
Description: (§4) Preparation of emulsion particles. Triolein (160 mg) and L-alpha-Phosphatidylcholine (40 mg) are combined and dried under nitrogen. After the addition of 8 mls of buffer (10 mM Tris, 100 mM KCl, 1 mM EDTA, pH 8.0), the mixture is sonicated in a water bath to obtain a heterogeneous mix of emulsion particles. The particles are harvested by ultracentrifugation (TLA 100.2 rotor, 30,000 rpm for 30 minutes) and the subsequent lipid cake is removed by tube slicing and resuspended in 100 μt 20 mM Phosphate Buffer (PB). Triolein and phospholipid content are measured and total emulsion particle concentration is determined.
(§5) Radiolabelling Freshly denatured and renatured Apolipoprotein E3 and E4 are radiolabelled using Bolton-Hunter Reagent [^125I] (ICN). Specific Activity is determined using Lowry method and Gamma 8000 counter.
(§6) Binding Affinity Assay. […] In glass tubes, 25 μg of protein (with iodinated tracer) was reduced with 1% β-mercaptoethanol. Two hundred and fifty μg of emulsion particles and 2.5 μl of compound (10 mM stock) were added and the final mixture was brought up to 250 μl with 20 mM phosphate buffer (PB). The reaction mixture was then incubated in a 37° C. water bath for 2 hours before being transferred to 1.5 ml ultracentrifuge tubes. Finally, 50 μl of 60% sucrose was mixed with the sample and 400 μl 20 mM PB was carefully layered on top. Using a TLA 100.2 rotor, the tube was spun at 30,000 rpm for 30 minutes and subsequently cut to separate the floating emulsion particle layer from the free protein at the bottom of the tube. These fractions were then combined with the respective half of the actual tube and counted using a Gamma-8000. […] Protein-only assays yielded 94.5-96.6% of protein accumulated in the bottom portion of the tube. In emulsion particle-only assays, 94% of emulsion particles accumulated in the top portion of the tube.
(§7) Preparation of Emulsion Particles and VLDL Binding Affinity Assay. VLDL-like emulsion particles were prepared using triolein (160 mg) and L-alpha-phosphatidylcholine (40 mg), as described. Dong and Weisgraber (1996) supra; and Dong et al. (1994) J. Biol. Chem. 269:22358-22365.

[2] = tested on: apoE4 enhancement of Aβ production; experiment: Aβ production assay, B103-APP cells incubated with apoE4; assay type: cell-based, rat; conditions: FIG. 22
Description: as §1, §2, §3

apoE3 [3] = target: T2, apoE3 (Homo sapiens, UniProt P02649); experiment: Emulsion binding assay, apoE3; conditions: follow-up assay
T2 construct: made in house
Description: as §4, §5, §6, §7

Neuro-2a cells [4] = experiment: Aβ-induced lysosomal leakage (cytosolic β-hexosaminidase); assay type: cell-based, mouse; conditions: 20 μM Aβ1-42
Description: The cytosolic fraction was obtained by ultracentrifugation, and the cytosolic β-hexosaminidase activity was measured.
Quantitation of the lysosomal enzyme β-hexosaminidase activity in the cytosol indicates lysosomal leakage. […] After incubation the cells were washed and cytosolic fractions were isolated as described in Materials and Methods. The enzymatic activity of β-hexosaminidase was assayed in 20 μg of cytosolic protein for each sample.
Lysosomal leakage was quantitated by assaying cytosolic 0-hexosaminidase activity. […] Conditioned media were prepared as described above. Apoptosis was quantitated by measuring DNA fragmentation.

Neuro-2a cells [5] = experiment: Aβ-induced apoptosis (DNA fragmentation assay); assay type: cell-based, mouse
Description: DNA Fragmentation Assay—DNA fragmentation of apoptotic cells was determined with Cell Death Detection ELISA kits (Roche, Indianapolis, Ind.).
FIG. 38. […] Control cells were not treated with Aβ1-42. Apoptotic cell death was measured with a DNA fragmentation assay. Values are the mean±S.D. of three separate experiments.
FIGS. 39A and 39B. […] Lysosomal leakage was quantitated by assaying cytosolic 0-hexosaminidase activity. […] Conditioned media were prepared as described above. Apoptosis was quantitated by measuring DNA fragmentation.

B103-APP cells = experiment: APP processing and Aβ production, B103-APP cells; assay type: cell-based, rat
Description: as §1, §2
In some experiments, cells were treated with lovastatin, as described but with a minor modification. Fassbender et al. (2001) Proc. Natl. Acad. Sci. USA 98:5856-5861. Briefly, cells were maintained in differentiation medium containing 4 μM lovastatin and 0.25 mM mevalonate for 24 h. After treatment for 5 min with 5 mM methyl-β-cyclodextrin, which depletes cell membrane cholesterol (Bodovitz and Klein (1996) J. Biol. Chem. 271:4436-4440; Kojro et al. (2001) Proc. Natl. Acad. Sci. USA 98:5815-5820), the cells were incubated in fresh differentiation medium containing lovastatin and mevalonate for 24 h. The conditioned medium was collected, and cellular cholesterol extracted with chloroform/methanol (Huang et al. (1994) Proc. Natl. Acad. Sci. USA 91:1834-1838) and quantitated with a kit from Abbott Laboratories (Abbott Park, Ill.).
Detection of sAPPα. Media conditioned for 24 hours were normalized by protein content and subjected to SDS/PAGE. Proteins were then transferred onto nitrocellulose membranes. The sAPPα was detected by mAb 6E10 and visualized with an enhanced chemiluminescence system (Pierce, Rockford, Ill.).
as §3

[6] = β-VLDL 25 μg/ml cholesterol or lovastatin 4 μM

T1 sequence (P02649 19-317 C130R): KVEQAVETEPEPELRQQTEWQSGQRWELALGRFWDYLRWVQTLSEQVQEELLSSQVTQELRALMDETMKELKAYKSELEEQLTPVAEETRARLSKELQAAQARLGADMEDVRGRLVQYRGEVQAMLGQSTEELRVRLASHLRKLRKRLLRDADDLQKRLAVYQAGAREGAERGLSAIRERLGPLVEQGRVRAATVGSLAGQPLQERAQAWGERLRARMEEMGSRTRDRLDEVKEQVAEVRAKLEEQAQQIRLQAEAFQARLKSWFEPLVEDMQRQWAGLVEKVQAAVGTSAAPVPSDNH
T2 sequence (P02649 19-317): as the sequence (P02649 19-317 C130R) above, with R112C counted along it

Molecule | E4 + cpd n = 3, % bound (apoE4) | E4 + cpd n = 3, % free (apoE4) | E4 control, % bound (apoE4) | E4 control, % free (apoE4) | E4 + cpd, % bound (apoE4) | E4 + cpd, % free (apoE4) | E3 + compound, % bound (apoE3 [3]) | E3 + compound, % free (apoE3 [3]) | further results
5-chloro-2-(4-chloro-2-(3,4-dichloro phenylureido) [GIND32] | 57% | 43% | 49% | 51% | 22% and 19% | 78% and 81% | 14% | 86% | effect on apoE3 (Aβ production) (apoE3 [1]): no effect; apoE4 enhancement of Aβ production [2]: abolished completely
Aβ1-42: Amyloid β1-42, aggregated before use |  |  |  |  |  |  |  |  | increase of cytosolic β-hexosaminidase activity (Neuro-2a cells [4]; apoE4-transfected cells): ~85%; increase of cytosolic β-hexosaminidase activity (Neuro-2a cells [4]; neo-transfected cells): ~40%; DNA fragmentation (Neuro-2a cells [5]; apoE3-transfected cells, 20 μM Aβ1-42, 18 h): 110 % of that in Z-VAD-treated con; DNA fragmentation (Neuro-2a cells [5]; apoE4-transfected cells, 20 μM Aβ1-42, 18 h): ~250 % of that in Z-VAD-treated con; Aβ-induced DNA fragmentation (Neuro-2a cells [5]; neo-transfected cells in apoE3-conditioned medium, 20 μM Aβ1-42, 18 h): 202%; Aβ-induced DNA fragmentation (Neuro-2a cells [5]; neo-transfected cells in apoE4-conditioned medium, 20 μM Aβ1-42, 18 h): 314%; Aβ-induced DNA fragmentation (Neuro-2a cells [5]; neo-transfected cells in neo-conditioned medium, 20 μM Aβ1-42, 18 h): 232%; DNA fragmentation (Neuro-2a cells [5]; neo-transfected cells, 20 μM Aβ1-42, 18 h): ~140 % of that in Z-VAD-treated con
CC[C@H](C)C(=O)O[C@H]1C[C@@H](C)C=C2C=C[C@H](C)[C@H](CC[C@@H]3C[C@@H](O)CC(=O)O3)[C@H]21 [lovastatin, reference compound] |  |  |  |  |  |  |  |  | cellular cholesterol content (B103-APP cells; [6]): lowered; production of Aβ (B103-APP cells; [6]): decreased; secretion of sAPPα (B103-APP cells; [6]): increased
apoE4-Thr-61: Thr-61 mutant of apoE4, lacks intramolecular domain interaction |  |  |  |  |  |  |  |  | enhanced Aβ production (B103-APP cells; 7.5 μg/ml, 37° C., 24 h, compared with apoE3 or apoE4): abolished the enhanced Aβ production
O=C(N[C@H](Cc1ccc(OCc2ccccc2)cc1)C(=O)O)OCc1ccccc1 [Z-D-Tyr (BZL)-OH] | 57% | 43% | 43% | 57% | 25% and 23% | 75% and 77% | 26% | 74% | 
glycine cresol red [GIND29] | 57% | 43% | 48% | 52% | 23% and 29% | 77% and 71% | 33% | 67% | effect on apoE3 (Aβ production) (apoE3 [1]): no effect; apoE4 enhancement of Aβ production [2]: abolished completely
Z-VAD |  |  |  |  |  |  |  |  | DNA fragmentation, Z-VAD treatment alone (Neuro-2a cells [5]; compared with untreated control cells): no effect; Aβ-induced DNA fragmentation (Neuro-2a cells [5]; pretreatment with Z-VAD 100 μg/ml 2 h, all three cell lines): greatly reduced
O.O=C([O-])c1ccccc1-c1c2cc(I)c(=O)c(I)c-2oc2c(I)c([O-])c(I)cc12.[Na+].[Na+] [Erythrosin B] | 57% | 43% | 26% | 74% | 11% and 10% | 89% and 90% | 20% | 80% | 
